Where a SMILES comes first, the peptide text is derived from it. [ ]: non-standard residue; d: D form. The star is where a group is joined. NHCH2CH2OH = OCCN*; For = O=C*
Assays:
[1] = H+/Na+ transport assay of bead-derived peptides (one-point); assay type: biochemical; parameters: key: relative activity; mean of two control wells = 1.00; details: bead-derived peptide solution, EYPC/EYPG LUVs;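 note: relative to parent gramicidin A activity set to 1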
In short: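 Values are normalized fluorescence, with Triton X-100 defining 100% and untreated LUVs 0%, and the two control wells averaging 1.00. Vesicles carried 1.0 mM pyranine and included egg yolk phosphatidylglycerol. Peptides were incubated with them 30 min at room temperature.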

[2] = test system: P388 mouse leukemia cells; details: 92 h
In short: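 P388 cells at 1 × 10^4 cells/mL (final) were exposed to library peptides (stocks diluted 250-fold in RPMI1640/10% FBS) for 92 h at 37 °C, 5% CO2. Viable cells were counted by WST-1/1-methoxy PMS (4 h), absorbance 415 nm, and expressed as cell viability (%).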

[3] = test system: Streptococcus pyogenes SSI-9; test: Antibacterial activity assay of bead-derived peptides (three concentrations); assay type: cell-based; parameters: key: +++: inhibition by the 640-fold diluted peptide solution; ++: inhibition by the 160-fold diluted solution; +: inhibition by the 40-fold diluted solution; -: no inhibition; details: S. pyogenes, bead-derived peptide solution, three concentrations
In short: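 Undiluted, 4-fold and 16-fold DMSO-diluted peptide stocks; S. pyogenes SSI-9, 2 × 10^5 CFU, cation-adjusted MHB (50 mg/L Ca2+, 25 mg/L Mg2+) + 5% laked horse blood; 37 °C, 18 h; readout = cell pellet visible or not.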

Row | SMILES | H+/Na+ transport activity normalized against the value of 1 (1.00) [1] | cell viability/% [2] [%] | antibacterial activity [3]
1 | CNC(=O)C[C@@H](NC(=O)[C@@H](NC(=O)[C@@H](CC(C)C)NC(=O)[C@H](C)NC(=O)[C@H](NC(=O)[C@H](C)NC(=O)CNC(=O)[C@@H](NC=O)C(C)C)C(C)C)C(C)C)C(=O)N[C@@H](Cc1c[nH]c2ccccc12)C(=O)N[C@H](CC(C)C)C(=O)N[C@@H](Cc1c[nH]c2ccccc12)C(=O)N[C@@H](C(=O)N[C@@H](Cc1c[nH]c2ccccc12)C(=O)N[C@@H](C(=O)N[C@@H](Cc1c[nH]c2ccccc12)C(=O)NCCO)C(C)C)C(C)C [compound 11349] (For-VGA[dV]A[dL]V[dD](NHMe)W[dL]W[dV]W[dV]W-NHCH2CH2OH) | 1.00 | 34.3 | -
2 | CNC(=O)C[C@@H](NC(=O)[C@H](Cc1c[nH]c2ccccc12)NC(=O)[C@@H](CC(C)C)NC(=O)[C@H](Cc1c[nH]c2ccccc12)NC(=O)[C@H](NC(=O)[C@H](Cc1c[nH]c2ccccc12)NC(=O)[C@@H](CC(C)C)NC(=O)[C@@H](NC(=O)[C@H](NC(=O)[C@H](C)NC(=O)[C@H](NC(=O)[C@H](C)NC(=O)CNC(=O)[C@@H](NC=O)C(C)C)C(C)C)C(C)C)C(C)C)C(C)C)C(=O)N[C@@H](Cc1c[nH]c2ccccc12)C(=O)NCCO [compound 11368] (For-VGA[dV]A[dV]V[dL]W[dV]W[dL]W[dD](NHMe)W-NHCH2CH2OH) | 1.01 | 61.1 | -
3 | CC(C)C[C@@H](NC(=O)[C@H](C)NC(=O)[C@H](NC(=O)[C@H](C)NC(=O)CNC(=O)[C@@H](NC=O)C(C)C)C(C)C)C(=O)N[C@H](C(=O)N[C@@H](C(=O)N[C@@H](Cc1c[nH]c2ccccc12)C(=O)N[C@H](CC(C)C)C(=O)N[C@@H](Cc1c[nH]c2ccccc12)C(=O)N[C@@H](C(=O)N[C@@H](Cc1c[nH]c2ccccc12)C(=O)N[C@H](CC(C)C)C(=O)N[C@@H](Cc1c[nH]c2ccccc12)C(=O)NCCO)[C@H](C)O)C(C)C)C(C)C [compound 11374] (For-VGA[dV]A[dL]V[dV]W[dL]W[dT]W[dL]W-NHCH2CH2OH) | 1.07 | 45.1 | +
4 | CNC(=O)C[C@@H](NC(=O)[C@@H](NC(=O)[C@@H](CC(C)C)NC(=O)[C@H](C)NC(=O)[C@H](NC(=O)[C@H](C)NC(=O)CNC(=O)[C@@H](NC=O)C(C)C)C(C)C)C(C)C)C(=O)N[C@@H](Cc1c[nH]c2ccccc12)C(=O)N[C@@H](C(=O)N[C@@H](Cc1c[nH]c2ccccc12)C(=O)N[C@@H](C(=O)N[C@@H](Cc1c[nH]c2ccccc12)C(=O)N[C@@H](C(=O)N[C@@H](Cc1c[nH]c2ccccc12)C(=O)NCCO)C(C)C)C(C)C)C(C)C [compound 11383] (For-VGA[dV]A[dL]V[dD](NHMe)W[dV]W[dV]W[dV]W-NHCH2CH2OH) | 1.09 | 55.3 | -
5 | CNC(=O)C[C@@H](NC(=O)[C@H](Cc1c[nH]c2ccccc12)NC(=O)[C@@H](CC(C)C)NC(=O)[C@H](Cc1c[nH]c2ccccc12)NC(=O)[C@@H](CC(C)C)NC(=O)[C@H](Cc1c[nH]c2ccccc12)NC(=O)[C@H](NC(=O)[C@@H](NC(=O)[C@@H](CC(C)C)NC(=O)[C@H](C)NC(=O)[C@@H](CC(C)C)NC(=O)[C@H](C)NC(=O)CNC(=O)[C@@H](NC=O)C(C)C)C(C)C)C(C)C)C(=O)N[C@@H](Cc1c[nH]c2ccccc12)C(=O)NCCO [compound 11401] (For-VGA[dL]A[dL]V[dV]W[dL]W[dL]W[dD](NHMe)W-NHCH2CH2OH) | 1.09 | 56.6 | -
6 | CC(C)C[C@@H](NC(=O)[C@H](C)NC(=O)CNC(=O)[C@@H](NC=O)C(C)C)C(=O)N[C@@H](C)C(=O)N[C@H](CC(C)C)C(=O)N[C@H](C(=O)N[C@H](CC(C)C)C(=O)N[C@@H](Cc1c[nH]c2ccccc12)C(=O)N[C@@H](C(=O)N[C@@H](Cc1c[nH]c2ccccc12)C(=O)N[C@H](CC(C)C)C(=O)N[C@@H](Cc1c[nH]c2ccccc12)C(=O)N[C@H](CC(C)C)C(=O)N[C@@H](Cc1c[nH]c2ccccc12)C(=O)NCCO)[C@H](C)O)C(C)C [compound 11408] (For-VGA[dL]A[dL]V[dL]W[dT]W[dL]W[dL]W-NHCH2CH2OH) | 1.30 | 57.5 | -
7 | CNC(=O)C[C@@H](NC(=O)[C@H](Cc1c[nH]c2ccccc12)NC(=O)[C@@H](CC(C)C)NC(=O)[C@H](Cc1c[nH]c2ccccc12)NC(=O)[C@@H](CC(C)C)NC(=O)[C@H](Cc1c[nH]c2ccccc12)NC(=O)[C@H](NC(=O)[C@@H](NC(=O)[C@H](NC(=O)[C@H](C)NC(=O)[C@@H](CC(C)C)NC(=O)[C@H](C)NC(=O)CNC(=O)[C@@H](NC=O)C(C)C)C(C)C)C(C)C)C(C)C)C(=O)N[C@@H](Cc1c[nH]c2ccccc12)C(=O)NCCO [compound 11422] (For-VGA[dL]A[dV]V[dV]W[dL]W[dL]W[dD](NHMe)W-NHCH2CH2OH) | 1.04 | 47.4 | +
8 | CC(C)C[C@@H](NC(=O)[C@H](C)NC(=O)CNC(=O)[C@@H](NC=O)C(C)C)C(=O)N[C@@H](C)C(=O)N[C@@H](C(=O)N[C@H](C(=O)N[C@H](CC(C)C)C(=O)N[C@@H](Cc1c[nH]c2ccccc12)C(=O)N[C@H](CC(C)C)C(=O)N[C@@H](Cc1c[nH]c2ccccc12)C(=O)N[C@@H](C(=O)N[C@@H](Cc1c[nH]c2ccccc12)C(=O)N[C@H](CC(C)C)C(=O)N[C@@H](Cc1c[nH]c2ccccc12)C(=O)NCCO)[C@H](C)O)C(C)C)C(C)C [compound 11425] (For-VGA[dL]A[dV]V[dL]W[dL]W[dT]W[dL]W-NHCH2CH2OH) | 1.12 | 41.5 | +
9 | CC(C)C[C@@H](NC(=O)[C@H](C)NC(=O)[C@H](NC(=O)[C@H](C)NC(=O)CNC(=O)[C@@H](NC=O)C(C)C)C(C)C)C(=O)N[C@H](C(=O)N[C@@H](C(=O)N[C@@H](Cc1c[nH]c2ccccc12)C(=O)N[C@@H](C(=O)N[C@@H](Cc1c[nH]c2ccccc12)C(=O)N[C@H](CC(C)C)C(=O)N[C@@H](Cc1c[nH]c2ccccc12)C(=O)N[C@H](CC(C)C)C(=O)N[C@@H](Cc1c[nH]c2ccccc12)C(=O)NCCO)C(C)C)[C@H](C)O)C(C)C [compound 11433] (For-VGA[dV]A[dL]V[dT]W[dV]W[dL]W[dL]W-NHCH2CH2OH) | 1.38 | 51.1 | -
10 | CC(C)C[C@@H](NC(=O)[C@H](C)NC(=O)CNC(=O)[C@@H](NC=O)C(C)C)C(=O)N[C@@H](C)C(=O)N[C@@H](C(=O)N[C@H](C(=O)N[C@@H](C(=O)N[C@@H](Cc1c[nH]c2ccccc12)C(=O)N[C@@H](C(=O)N[C@@H](Cc1c[nH]c2ccccc12)C(=O)N[C@H](CC(C)C)C(=O)N[C@@H](Cc1c[nH]c2ccccc12)C(=O)N[C@@H](C(=O)N[C@@H](Cc1c[nH]c2ccccc12)C(=O)NCCO)C(C)C)C(C)C)C(C)C)C(C)C)C(C)C [compound 11438] (For-VGA[dL]A[dV]V[dV]W[dV]W[dL]W[dV]W-NHCH2CH2OH) | 1.18 | 100.0 | ++
